Test results taken from US20240247080A1, “GLP1/GIP/NPY2 RECEPTOR TRIPLE AGONISTS” (Boehringer Ingelheim International GmbH, priority 2022, published 2024).
Where two headings read alike, the source gives them in different places. Starred links: 1 amine or outer side, 2 acyl side, 3 side chain; linkers in the order of their positions; H or OH if unused. Positions of bridges follow the written chain, without caps; N, C: chain ends. Non-standard residues stand in square brackets, D forms with d. Groups on a side chain read outwards from the residue. Chains are numbered I, II in the order given. No end group written: not given here. *: point of attachment. C20 diacid = O=C(O)CCCCCCCCCCCCCCCCCCC(=O)*; C18 diacid = O=C(O)CCCCCCCCCCCCCCCCC(=O)*; γGlu = O=C(O)[C@H](CCC(=O)[*:2])N[*:1]; εLys = N[C@@H](CCCCN[*:1])C(=O)[*:2]; AEEA = NCCOCCOCC(=O)O; Aib = CC(C)(N)C(=O)O

Columns and labels:
Assay type in all cases: cell-based
Conditions in all cases: CreLuc reporter gene assay
[1] = biological target: T1, hGIPR (Homo sapiens, UniProt P48546); test: hGIPR CreLuc reporter gene assay in 0.5% and 100% plasma
T1 construct: expressed in transfected cells; host or cells: CHO cells carrying a CRE-luciferase reporter gene
T1 sequence (P48546 22-466): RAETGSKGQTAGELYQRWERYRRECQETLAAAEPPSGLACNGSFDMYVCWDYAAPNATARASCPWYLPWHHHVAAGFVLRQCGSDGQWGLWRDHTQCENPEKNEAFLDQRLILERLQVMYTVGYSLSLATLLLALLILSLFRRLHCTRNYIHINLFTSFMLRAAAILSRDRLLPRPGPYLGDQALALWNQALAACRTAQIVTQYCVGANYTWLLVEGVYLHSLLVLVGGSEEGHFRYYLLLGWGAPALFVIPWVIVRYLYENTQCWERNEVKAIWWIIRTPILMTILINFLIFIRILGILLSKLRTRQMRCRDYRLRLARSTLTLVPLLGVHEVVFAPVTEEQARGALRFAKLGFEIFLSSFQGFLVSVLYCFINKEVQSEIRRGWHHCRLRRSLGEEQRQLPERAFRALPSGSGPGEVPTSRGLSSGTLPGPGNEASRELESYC
Summary of the method: (§1)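 HEK-293 cells co-expressing GLP-1 or NPY2 receptor and CHO cells expressing GIP receptor, each carrying a CRE-driven luciferase reporter, were stimulated with peptides for 4 hours at 37 °C. Luminescence was read after Bright-Glo addition. EC50 came from 8-point, four-decade curves fitted by variable-slope non-linear regression.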

[2] = biological target: T2, hGLP1R (Homo sapiens, UniProt P43220); test: hGLP1R CreLuc reporter gene assay in 0.5% and 100% plasma
T2 construct: expressed in transfected cells; host or cells: HEK-293 cells carrying a CRE-luciferase reporter gene
Summary of the method: as §1

[3] = biological target: T3, hNPY2R (Homo sapiens, UniProt P49146); test: hNPY2R CreLuc reporter gene assay in 0.5% and 100% plasma
T3 construct: expressed in transfected cells; host or cells: HEK-293 cells carrying a CRE-luciferase reporter gene
T3 sequence (P49146 1-381): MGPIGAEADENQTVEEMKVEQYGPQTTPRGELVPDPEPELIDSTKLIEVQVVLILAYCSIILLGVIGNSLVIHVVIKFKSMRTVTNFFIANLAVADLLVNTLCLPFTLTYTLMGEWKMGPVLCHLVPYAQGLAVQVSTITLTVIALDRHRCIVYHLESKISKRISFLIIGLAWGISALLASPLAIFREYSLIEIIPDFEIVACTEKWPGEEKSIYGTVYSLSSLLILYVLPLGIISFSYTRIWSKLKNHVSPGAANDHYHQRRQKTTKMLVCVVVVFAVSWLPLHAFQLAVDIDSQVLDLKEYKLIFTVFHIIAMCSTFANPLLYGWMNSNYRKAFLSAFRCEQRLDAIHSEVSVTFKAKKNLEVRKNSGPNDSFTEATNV
Summary of the method: as §1

[4] = 0.5% human plasma, read-out: hGIPR 0.5% hP
[5] = 0.5% human plasma, read-out: hGLP1R 0.5% hP
[6] = 0.5% human plasma, read-out: hNPY2R 0.5% hP
[7] = 100% human plasma, read-out: hGLP1R 100% hP
[8] = 100% human plasma, read-out: hGIPR 100% hP
[9] = 100% human plasma, read-out: hNPY2R 100% hP

T2 sequence (P43220 24-463): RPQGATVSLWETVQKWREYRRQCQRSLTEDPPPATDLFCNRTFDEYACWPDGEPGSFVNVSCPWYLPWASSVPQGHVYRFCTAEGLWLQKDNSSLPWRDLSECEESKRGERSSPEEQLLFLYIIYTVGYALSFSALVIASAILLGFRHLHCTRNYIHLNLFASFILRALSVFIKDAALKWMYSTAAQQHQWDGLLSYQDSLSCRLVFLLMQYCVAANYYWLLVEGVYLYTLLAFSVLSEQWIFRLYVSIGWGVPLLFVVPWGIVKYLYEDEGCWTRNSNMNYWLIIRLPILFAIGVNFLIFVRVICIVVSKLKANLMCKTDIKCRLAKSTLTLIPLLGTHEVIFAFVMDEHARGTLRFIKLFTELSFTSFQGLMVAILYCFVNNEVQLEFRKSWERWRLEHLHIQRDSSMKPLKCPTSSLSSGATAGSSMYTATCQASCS

Row | Molecule | EC50 [1, 4] [nM] | EC50 [2, 5] [nM] | EC50 [3, 6] [nM] | EC50 [2, 7] [nM] | EC50 [1, 8] [nM] | EC50 [3, 9] [nM]
1 | H-Y[Aib]EGTFTSDYSI[Aib]LEKQAQ[Aib]AFVEWLIK([εLys-γGlu-γGlu-γGlu-γGlu-γGlu-γGlu-C20 diacid])GGPSTGASLRHYYNWLTRQRY-NH2 [Compound 244, Y-Aib-E-G-T-F-T-S-D-Y-S-I-Aib-L-E-K-Q-A-Q-Aib-A-F-V-E-W-L-I-K(1,3)-GGPSTGASLRHYYNWLTRQRY-NH2.C20DA-gGlu-gGlu-gGlu-gGlu-gGlu-gGlu-eLys(1,2)] | 0.32 | 0.19 | 13.5 |  |  | 
2 | H-Y[Aib]EGTFTSDYSI[Aib]LEEEAQ[Aib]AFVEWLIK([εLys-γGlu-γGlu-γGlu-γGlu-γGlu-γGlu-C20 diacid])GGPSSGASLRHYYNWLTRQRY-NH2 [Compound 66, Y-Aib-E-G-T-F-T-S-D-Y-S-I-Aib-L-E-E-E-A-Q-Aib-A-F-V-E-W-L-I-K(1,3)-GGPSSGASLRHYYNWLTRQRY-NH2.C20DA-gGlu-gGlu-gGlu-gGlu-gGlu-gGlu-eLys(1,2)] | 0.64 | 0.24 | 18.7 | 11.6 |  | 
3 | H-Y[Aib]EGTFTSDYSI[Aib]LEKQAQ[Aib]AFVEWLIK([AEEA-AEEA-γGlu-γGlu-γGlu-γGlu-C18 diacid])GGPSSPASLRHYYNWLTRQRY-NH2 [Compound 158, Y-Aib-E-G-T-F-T-S-D-Y-S-I-Aib-L-E-K-Q-A-Q-Aib-A-F-V-E-W-L-I-K(1,3)-GGPSSPASLRHYYNWLTRQRY-NH2.C18DA-gGlu-gGlu-gGlu-gGlu-OEG-OEG(1,2)] | 0.11 | 0.09 | 15.8 |  | 0.84 | 39.9
4 | H-Y[Aib]EGTFTSDYSI[Aib]LEKQAQ[Aib]AFVEWLIK([γGlu-γGlu-γGlu-γGlu-γGlu-C20 diacid])GGPSEGASLRHYYNWLTRQRY-NH2 [Compound 289, Y-Aib-E-G-T-F-T-S-D-Y-S-I-Aib-L-E-K-Q-A-Q-Aib-A-F-V-E-W-L-I-K(1,3)-GGPSEGASLRHYYNWLTRQRY-NH2.C20DA-gGlu-gGlu-gGlu-gGlu-gGlu(1,2)] | 0.7 | 0.14 | 11.1 |  | 1.75 | 56.3
5 | H-Y[Aib]EGTFTSDYSI[Aib]LEKQAQ[Aib]EFVQWLIK([AEEA-AEEA-γGlu-γGlu-γGlu-γGlu-γGlu-C20 diacid])GGPSSGASLRHYYNWLTRQRY-NH2 [Compound 36, Y-Aib-E-G-T-F-T-S-D-Y-S-I-Aib-L-E-K-Q-A-Q-Aib-E-F-V-Q-W-L-I-K(1,3)-GGPSSGASLRHYYNWLTRQRY-NH2.C20DA-gGlu-gGlu-gGlu-gGlu-gGlu-OEG-OEG(1,2)] | 0.26 | 0.28 | 8.03 |  | 1.57 | 26.8
6 | Y[Aib]EGTFTSDYSI[Aib]LEKQAQ[Aib]AFVQWLIK([AEEA-AEEA-γGlu-γGlu-γGlu-γGlu-γGlu-C18 diacid])GGPSSGASLRHYYNWLTRQRY-NH2 [Compound 167, Y-Aib-E-G-T-F-T-S-D-Y-S-I-Aib-L-E-K-Q-A-Q-Aib-A-F-V-Q-W-L-I-K(1,3)-GGPSSGASLRHYYNWLTRQRY-NH2.C18DA-gGlu-gGlu-gGlu-gGlu-gGlu-OEG-OEG(1,2)] | 0.14 | 0.04 | 10.5 | 0.82 | 0.49 | 26.5
7 | H-Y[Aib]EGTFTSDYSI[Aib]LEKQAQ[Aib]AFVEWLIK([γGlu-γGlu-γGlu-γGlu-γGlu-C18 diacid])GGPSSGASLRHYYNWLTRQRY-NH2 [Compound 253, Y-Aib-E-G-T-F-T-S-D-Y-S-I-Aib-L-E-K-Q-A-Q-Aib-A-F-V-E-W-L-I-K(1,3)-GGPSSGASLRHYYNWLTRQRY-NH2.C18DA-gGlu-gGlu-gGlu-gGlu-gGlu(1,2)] | 0.24 | 0.08 | 13.4 | 0.74 | 0.64 | 
8 | I: Y[Aib]EGTFTSDYSI[Aib]LEKQAQ[Aib]AFVQWLIKGGPSEGASLRHYYNWLTRQRY-NH2 / II: {C20 diacid}-EEEEE[εLys] (amide I:28-II:C) [Compound 240, Y-Aib-E-G-T-F-T-S-D-Y-S-I-Aib-L-E-K-Q-A-Q-Aib-A-F-V-Q-W-L-I-K(1,3)-GGPSEGASLRHYYNWLTRQRY-NH2.C20DA-E-E-E-E-E-eLys(1,2)] | 0.33 | 0.14 | 10.7 | 6.74 | 1.97 | 
9 | H-Y[Aib]EGTFTSDYSI[Aib]LDKQAQ[Aib]AFVEWLIK([εLys-γGlu-γGlu-γGlu-γGlu-γGlu-γGlu-C20 diacid])GGPSSGASLRHYYNWLTRQRY-NH2 [Compound 128, Y-Aib-E-G-T-F-T-S-D-Y-S-I-Aib-L-D-K-Q-A-Q-Aib-A-F-V-E-W-L-I-K(1,3)-GGPSSGASLRHYYNWLTRQRY-NH2.C20DA-gGlu-gGlu-gGlu-gGlu-gGlu-gGlu-eLys(1,2)] | 0.11 | 0.4 | 24.8 |  |  | 
10 | H-Y[Aib]EGTFTSDYSI[Aib]LEKQAQ[Aib]AFVEWLIK([εLys-γGlu-γGlu-γGlu-γGlu-γGlu-γGlu-C20 diacid])GGPSSGVSLRHYYNWLTRQRY-NH2 [Compound 96, Y-Aib-E-G-T-F-T-S-D-Y-S-I-Aib-L-E-K-Q-A-Q-Aib-A-F-V-E-W-L-I-K(1,3)-GGPSSGVSLRHYYNWLTRQRY-NH2.C20DA-gGlu-gGlu-gGlu-gGlu-gGlu-gGlu-eLys(1,2)] | 0.19 | 0.14 |  | 2.12 | 1.07 | 44.8
11 | H-Y[Aib]EGTFTSDYSI[Aib]LEKQAE[Aib]AFVQWLIK([εLys-γGlu-γGlu-γGlu-γGlu-C18 diacid])GGPSEPASLRHYYNWLTRQRY-NH2 [Compound 54, Y-Aib-E-G-T-F-T-S-D-Y-S-I-Aib-L-E-K-Q-A-E-Aib-A-F-V-Q-W-L-I-K(1,3)-GGPSEPASLRHYYNWLTRQRY-NH2.C18DA-gGlu-gGlu-gGlu-gGlu-eLys(1,2)] | 0.24 | 0.22 | 14 | 7.71 |  | 
12 | CC[C@H](C)[C@H](NC(=O)[C@H](CC(C)C)NC(=O)[C@H](Cc1c[nH]c2ccccc12)NC(=O)[C@H](CCC(=O)O)NC(=O)[C@@H](NC(=O)[C@H](Cc1ccccc1)NC(=O)[C@H](C)NC(=O)C(C)(C)NC(=O)[C@H](CCC(N)=O)NC(=O)[C@H](C)NC(=O)[C@H](CCC(N)=O)NC(=O)[C@H](CCCCN)NC(=O)[C@H](CCC(=O)O)NC(=O)[C@H](CC(C)C)NC(=O)C(C)(C)NC(=O)[C@@H](NC(=O)[C@H](CO)NC(=O)[C@H](Cc1ccc(O)cc1)NC(=O)[C@H](CC(=O)O)NC(=O)[C@H](CO)NC(=O)[C@@H](NC(=O)[C@H](Cc1ccccc1)NC(=O)[C@@H](NC(=O)CNC(=O)[C@H](CCC(=O)O)NC(=O)C(C)(C)NC(=O)[C@@H](N)Cc1ccc(O)cc1)[C@@H](C)O)[C@@H](C)O)[C@@H](C)CC)C(C)C)C(=O)N[C@@H](CCCCNC(=O)[C@@H](N)CCCCNC(=O)CC[C@H](NC(=O)CC[C@H](NC(=O)CC[C@H](NC(=O)CC[C@H](NC(=O)CC[C@H](NC(=O)CC[C@H](NC(=O)CCCCCCCCCCCCCCCCCCC(=O)O)C(=O)O)C(=O)O)C(=O)O)C(=O)O)C(=O)O)C(=O)O)C(=O)NCC(=O)NCC(=O)N1CCC[C@H]1C(=O)N[C@@H](CO)C(=O)N[C@@H](CO)C(=O)NCC(=O)N[C@@H](C)C(=O)N[C@@H](CO)C(=O)N[C@@H](CC(C)C)C(=O)N[C@@H](CCCNC(=N)N)C(=O)N[C@H](Cc1c[nH]cn1)C(=O)N[C@@H](Cc1ccc(O)cc1)C(=O)N[C@@H](Cc1ccc(O)cc1)C(=O)N[C@@H](CC(N)=O)C(=O)N[C@@H](Cc1c[nH]c2ccccc12)C(=O)N[C@@H](CC(C)C)C(=O)N[C@H](C(=O)N[C@H](CCCNC(=N)N)C(=O)N[C@@H](CCC(N)=O)C(=O)N[C@@H](CCCNC(=N)N)C(=O)N[C@H](Cc1ccc(O)cc1)C(N)=O)[C@@H](C)O [Compound 21, Y-Aib-E-G-T-F-T-S-D-Y-S-I-Aib-L-E-K-Q-A-Q-Aib-A-F-V-E-W-L-I-K(1,3)-G-G-P-S-S-G-A-S-L-R-DHis-Y-Y-N-W-L-T-DArg-Q-R-DTyr-NH2.C20DA-gGlu-gGlu-gGlu-gGlu-gGlu-gGlu-eLys(1,2)] | 0.14 | 0.11 | > 99.9 | 1.66 | 0.87 | > 999
